Assay [1] relates to acetylcholine effect on heart rate. As to the kind of experiment: Inhibition of the effect of acetylcholine on heart rate in guinea pigs. Particulars: Cavia porcellus, 5 min; read-out: -log ED50, Heart (converted). Type of assay: in vivo, guinea pig. The procedure:
(§1) 5 minutes after the administration of the test substance, 10 microgram/kg of acetylcholine were simultaneously injected intravenously and intra-arterially into anesthetized guinea pigs. The heart rate was recorded directly by extracorporeal derivation of the ECG, the expiration resistance according to Konzett-Rossler and contraction of the exposed bladder. In order to determine the inhibition of the acetylcholine activity on the organs under investigation, dosage/activity curves were recorded and from them -log ED50 values were determined.

Assay [2] deals with acetylcholine effect on bronchi (expiration resistance). As to the kind of experiment: Inhibition of the effect of acetylcholine on bronchi in guinea pigs. In kind it is in vivo, guinea pig. The following applies: Cavia porcellus, 5 min; read-out: -log ED50, Bronchi (converted). The procedure:
as §1

Assay [3] deals with acetylcholine effect on bladder contraction. In words: Inhibition of the effect of acetylcholine on the bladder in guinea pigs. Type of assay: in vivo, guinea pig. The following applies: Cavia porcellus, 5 min; read-out: -log ED50, Bladder (converted). The procedure: as §1
In assay [4] the test system is vagal bradycardia (M2). In words: M1/M2 selectivity in the rat: reduction of bradycardia caused by vagus stimulation. Type of assay: in vivo. Particulars: iv, 5 min, male THOM rats, i.v., dose reducing vagal bradycardia (M2) by 50%, 5 minutes after injection, read-out: -log ED50, Heart (converted). The procedure:
(§2) The dosage of the substances which reduced either the vagal bradycardia (M2) or the rise in blood pressure (M1) by 50% was determined graphically. For the results see Table II.

Assay [5] deals with secretion of saliva initiated by pilocarpine. In words: Salivation-inhibiting effect in the rat (pilocarpine-induced). In kind it is in vivo. Particulars: iv, male THOM rats anesthetized with urethane, i.v., dose reducing volume of saliva by 50%, 2 mg/kg s.c. pilocarpine, read-out: -log ED50, Salivation inhibition (converted). The procedure:
The secretion of saliva was initiated by subcutaneous administration of 2 mg/kg of pilocarpine. The saliva was absorbed with blotting paper and the surface area covered was measured every 5 minutes by planimetry. The dosage of the substance which reduced the volume of saliva by 50% was determined graphically. For the results see Table II.

Assay [6] addresses muscarinic receptors, cerebral cortex. As to the kind of experiment: Receptor binding test in vitro, 3H-NMS displacement, cerebral cortex homogenate. Particulars: rat cerebral cortex homogenate 1:3000; 0.3 nanomolar 3H-NMS; 30° C., 45 minutes; read-out: Receptor Binding Tests IC50, Cortex. The procedure:
(§3) The organs were donated by male Sprague-Dawley rats weighing 180-220 g. After the heart and submandular gland and cerebral cortex had been removed, all other steps were carried out in ice cold Hepes HCl buffer (pH 7.4; 100 millimolar NaCl, 10 millimolar MgCl2). The whole heart was cut up with scissors. All the organs were then homogenized in a Potter apparatus.
(§4) For the binding test the homogenized organs were diluted as follows:
(§5) The homogenized organs were incubated at a certain concentration of the radioligand and at a series of concentrations of the non-radioactive test substances in an Eppendorf centrifuge tube at 30° C. Incubation lasted 45 minutes. The radioligand used was 0.3 nanomolar ^3 H--N- methylscopolamine (^3 H-NMS). Incubation was ended by the addition of ice cold buffer followed by vacuum filtration. The filters were rinsed with cold buffer and their radioactivity was determined. It represents the sum of specific and non-specific binding of ^3 H-NMS. The proportion of non-specific binding was defined as the radioactivity which was bound in the presence of 1 micromolar quinuclidinylbenzylate. Each measurement was taken four times. The IC50 values of the non-labelled test substances were determined graphically. They represent that concentration of test substance at which the specific binding of ^3 H-NMS to the muscarinic receptors in the various organs was inhibited by 50%.

The target of assay [7] is T1, muscarinic receptors, heart (Rattus norvegicus, UniProt P10980).
T1 construct: The whole heart was cut up with scissors; from tissue; host or cells: whole heart of male Sprague-Dawley rats, homogenate
T1 sequence (P10980 1-466): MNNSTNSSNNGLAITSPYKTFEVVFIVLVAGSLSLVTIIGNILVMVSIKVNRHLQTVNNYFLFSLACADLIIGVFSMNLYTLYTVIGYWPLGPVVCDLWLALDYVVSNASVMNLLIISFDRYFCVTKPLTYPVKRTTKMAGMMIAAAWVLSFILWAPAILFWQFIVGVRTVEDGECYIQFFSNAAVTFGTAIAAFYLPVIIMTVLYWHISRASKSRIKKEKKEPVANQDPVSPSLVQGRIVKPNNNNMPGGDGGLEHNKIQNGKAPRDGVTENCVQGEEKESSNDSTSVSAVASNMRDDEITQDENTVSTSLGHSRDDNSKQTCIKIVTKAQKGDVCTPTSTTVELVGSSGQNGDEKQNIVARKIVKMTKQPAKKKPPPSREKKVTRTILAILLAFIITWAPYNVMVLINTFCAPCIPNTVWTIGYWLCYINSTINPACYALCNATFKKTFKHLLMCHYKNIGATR
In words: Receptor binding test in vitro, 3H-NMS displacement, whole heart homogenate. The following applies: rat whole heart homogenate 1:400; 0.3 nanomolar 3H-NMS; 30° C., 45 minutes; read-out: Receptor Binding Tests IC50, Heart. The procedure: as §3, §4, §5

Assay [8] deals with T2, muscarinic receptors, submandibular gland (Rattus norvegicus, UniProt P08483).
T2 construct: All the organs were then homogenized in a Potter apparatus; from tissue; host or cells: submandibular gland of male Sprague-Dawley rats, homogenate
T2 sequence (P08483 whole entry): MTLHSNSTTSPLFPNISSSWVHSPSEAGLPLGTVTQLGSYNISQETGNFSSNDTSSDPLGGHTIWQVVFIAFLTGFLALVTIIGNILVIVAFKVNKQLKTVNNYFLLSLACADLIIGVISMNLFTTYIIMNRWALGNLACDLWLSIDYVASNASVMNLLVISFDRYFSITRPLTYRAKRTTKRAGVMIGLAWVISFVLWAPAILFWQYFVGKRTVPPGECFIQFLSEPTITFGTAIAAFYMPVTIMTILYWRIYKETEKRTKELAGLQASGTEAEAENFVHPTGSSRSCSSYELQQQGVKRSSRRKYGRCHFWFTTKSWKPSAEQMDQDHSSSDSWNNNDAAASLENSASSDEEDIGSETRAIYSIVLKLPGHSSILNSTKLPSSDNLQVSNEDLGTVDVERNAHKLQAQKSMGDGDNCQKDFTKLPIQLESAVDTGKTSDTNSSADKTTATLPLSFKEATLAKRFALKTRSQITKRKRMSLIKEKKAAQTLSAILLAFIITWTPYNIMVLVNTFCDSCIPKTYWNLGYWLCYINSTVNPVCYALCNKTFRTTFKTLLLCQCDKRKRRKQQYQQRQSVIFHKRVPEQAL
In words: Receptor binding test in vitro, 3H-NMS displacement, submandibular gland homogenate. Particulars: rat submandibular gland homogenate 1:400; 0.3 nanomolar 3H-NMS; 30° C., 45 minutes; read-out: Receptor Binding Tests IC50, Submandibular gland. The procedure:
as §3, §4, §5

Assay [9] deals with rise in blood pressure caused by McN-A-343 (M1). In words: M1/M2 selectivity in the rat: reduction of rise in blood pressure caused by McN-A-343. Type of assay: in vivo. The following applies: iv, 5 min, male THOM rats, i.v., dose reducing rise in blood pressure (M1) caused by 0.3 mg/kg McN-A-343 by 50%, read-out: -log ED50, Blood pressure (converted). The procedure: as §2

As usually defined, the ED50 is the dose that gives a 50% effect, or the effect in half of the subjects. Take `CN1CCCC1CCNCC(=O)N1c2ccccc2C(=O)Nc2cccnc21` (stereo not drawn) [A, 5,11-dihydro-11-[[[2-(1-methyl-2-pyrrolidinyl)ethyl]amino]acetyl]-6H-pyrido[2,3-b][1,4]benzodiazepin-6-one]: the ED50 in [1] is 0.0977 µmol/kg; in assay [2] it was 0.102 µmol/kg; in [3], 0.537 µmol/kg.

For `CCN(CC)CC1CCCCN1CC(=O)N1c2ccccc2C(=O)Nc2cccnc21` (stereo not drawn) [C, 11-[[2-[(diethylamino)methyl]-1-piperidinyl]acetyl]-5,11-dihydro-6H-pyrido[2,3-b][1,4]benzodiazepin-6-one, reference compound], the 50% effective dose (ED50) in [4] was 0.38 µmol/kg; in assay [5] it was 10 µmol/kg.

For orientation: IC50 means the concentration that inhibits the measured activity by half. On to `CCN1CCCC1CN(C)CC(=O)N1c2ccccc2C(=O)Nc2cccnc21` (stereo not drawn) [B, 5,11-dihydro-11-[[[(1-ethyl-2-pyrrolidinyl)methyl]methylamino]acetyl]-6H-pyrido[2,3-b][1,4]benzodiazepin-6-one], for which the IC50 in [6] was 30 nM; in assay [7], 6 nM; in [8] it was 50 nM. Moreover, the ED50 was 0.00741 µmol/kg in [4]; 0.141 µmol/kg in assay [9]; 0.813 µmol/kg in assay [5]; 0.0457 µmol/kg in [1]; 0.0347 µmol/kg in assay [2]; 1.17 µmol/kg in [3].

Regarding `CN1[C@@H]2CC[C@H]1C[C@@H](OC(=O)C(CO)c1ccccc1)C2` (stereo partly drawn) [E, atropine, reference compound], the ED50 was 0.0115 µmol/kg in assay [4], 0.0457 µmol/kg in assay [9], 0.02 µmol/kg in assay [1] and 0.0933 µmol/kg in [3].

The values above are taken from patent US5026699A, “Use of 5,11-dihydro-6H-pyrido[2,3-b][1,4]-benzodiazepin-6-ones substituted in the 11-position for treating bradycardia and bradyarrhythmia in human and veterinary medicine” (Dr. Karl Thomae GmbH, priority 1988, dated 1991).
